{"source": "patent US20110034496A1", "about": "“POST-HARVEST TREATMENT” (Bayer CropScience AG, priority 2007, published 2011)", "key": {"[1]": {"test_system": "Penicillium expansum", "experiment": "Apples dipped in fungicidal solution, then inoculated with Penicillium expansum spores at cuticle injuries", "type": "in vivo", "conditions": "for % Efficacy [Abbott] at 6 d: 6 d after inoculation; for % Efficacy [Abbott] at 10 d: 10 d after inoculation; for % Efficacy [Abbott] at 15 d: 15 d after inoculation", "procedure": "(§1) In Example 1 and Example 2 all compounds except fluopyram were applied as commercially available. 1 weight proportion of fluopyram, however, was mixed with solvents (24.5 w/w acetone, 24.5 w/w dimethylacetamid) and emulsifier (1 w/w), respectively. Afterwards, the product was diluted in water. The concentration used is indicated below. Apples were dipped in a fungicidal solution and kept in plastic boxes for drying. Afterwards 10 μl of a spore solution of Penicillium expansum has been applied to injuries of the cuticle of the fruits. The trial has been assessed at different time intervals after inoculation. The efficacy of the products has been calculated based on the fungal growth of the treated apples with reference to the inoculated untreated control. The efficacy is shown as % Abbott."}, "[2]": {"test_system": "Botrytis cinerea", "experiment": "Apples dipped in fungicidal solution, then inoculated with Botrytis cinerea spores at cuticle injuries", "type": "in vivo", "conditions": "dip 100 g a.i./1000 ltr", "procedure": "as §1, with “Botrytis cinerea” for “Penicillium expansum”, “6d and 10d” for “different time intervals”"}, "[3]": {"conditions": "dip 100 g a.i./1000 ltr., Table 1a"}, "[4]": {"conditions": "dip 100 g a.i./1000 ltr., Table 1b"}, "[5]": {"conditions": "dip 50 g a.i./1000 ltr., Table 1b"}, "[6]": {"conditions": "dip 750 g a.i./1000 ltr., Table 1b"}}, "data": [{"compound": "CC(C)(C)C(O)(CCc1ccc(Cl)cc1)Cn1cncn1", "note": "(centres unmarked) [Tebuconazole, tebuconazole]", "values": [{"measurement": "% Efficacy [Abbott] at 6 d", "setting": "[1]; [3]", "value": 100, "unit": "%"}, {"measurement": "% Efficacy [Abbott] at 10 d", "setting": "[1]; [3]", "value": 100, "unit": "%"}, {"measurement": "% Efficacy [Abbott] at 14 d", "setting": "[1]; dip 100 g a.i./1000 ltr., 14 d after inoculation, Table 1a", "value": 100, "unit": "%"}]}, {"compound": "O=C(NCCc1ncc(C(F)(F)F)cc1Cl)c1ccccc1C(F)(F)F", "note": "[Fluopyram, N-{2-[3-chloro-5-(trifluoromethyl)pyridin-2-yl]ethyl}-2-(trifluoromethyl)-benzamide]", "values": [{"measurement": "% Efficacy [Abbott] at 6 d", "setting": "[2]; 6 d after inoculation", "value": 98, "unit": "%"}, {"measurement": "% Efficacy [Abbott] at 10 d", "setting": "[2]; 10 d after inoculation", "value": 96, "unit": "%"}, {"measurement": "% Efficacy [Abbott] at 6 d", "setting": "[1]; [4]", "value": 93, "unit": "%"}, {"measurement": "% Efficacy [Abbott] at 10 d", "setting": "[1]; [4]", "value": 90, "unit": "%"}, {"measurement": "% Efficacy [Abbott] at 15 d", "setting": "[1]; [4]", "value": 70, "unit": "%"}]}, {"compound": "CON=C(C(=O)OC)c1ccccc1CON=C(C)c1cccc(C(F)(F)F)c1", "note": "[Trifloxystrobin, trifloxystrobin]", "values": [{"measurement": "% Efficacy [Abbott] at 6 d", "setting": "[1]; [5]", "value": 50, "unit": "%"}, {"measurement": "% Efficacy [Abbott] at 10 d", "setting": "[1]; [5]", "value": 63, "unit": "%"}, {"measurement": "% Efficacy [Abbott] at 15 d", "setting": "[1]; [5]", "value": 52, "unit": "%"}]}, {"compound": "Cc1ccc(N(SC(F)(Cl)Cl)S(=O)(=O)N(C)C)cc1", "note": "[Tolylfluanid, tolylfluanid]", "values": [{"measurement": "% Efficacy [Abbott] at 6 d", "setting": "[1]; [6]", "value": 64, "unit": "%"}, {"measurement": "% Efficacy [Abbott] at 10 d", "setting": "[1]; [6]", "value": 60, "unit": "%"}, {"measurement": "% Efficacy [Abbott] at 15 d", "setting": "[1]; [6]", "value": 60, "unit": "%"}]}]}
